The source of these data is PubChem BioAssay (NCI).

Assay in all cases: NCI anticancer screen, dose series, 48 h
For assay [1], the system named is HT29 colon.
The test system of assay [2] is OVCAR-4 ovarian.
The subject of assay [3] is SK-MEL-2 melanoma.
The test system of assay [4] is SF-539 CNS.
Assay [5] has as its system CAKI-1 renal.
Assay [6] relates to SF-268 CNS.
Assay [7] concerns A498 renal.
Assay [8] relates to SK-MEL-28 melanoma.
For assay [9], the system named is SK-MEL-5 melanoma.
For assay [10], the system named is A549 NSCLC.

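Following 48 hours of exposure in 96-well plates, responses at five concentrations were used to interpolate endpoints linearly. The concentration for 50% growth inhibition is given as GI50. Definition used: TGI = concentration required for complete inhibition of growth.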

Consider `COc1ccc(C2=C(N3CCc4ccccc43)C(=O)NC2=O)cc1`, for which the GI50 in [1], in assay [2], in assay [3], in assay [4], in [5] and in assay [6] was > 25 µM each time. For the same compound, the GI50 was > 16.6 µM in [7], > 25 µM in [8], > 21.6 µM in [9] and > 25 µM in assay [10]. The TGI in assay [1], in assay [2], in assay [3], in assay [4], in assay [5] and in assay [6] was > 25 µM each time. Also, the TGI in assay [7], in assay [8], in [9] and in assay [10] was > 25 µM each time.

In the case of `c1cnn2ncc(-c3ccnc(Nc4ccc5c(c4)OCCO5)n3)c2c1`, the GI50 in [1] was 0.0691 µM; in [2], 0.269 µM; in assay [3], 0.0483 µM; in [4], 0.0679 µM; in assay [5], 0.0773 µM; in assay [6] it was 0.0687 µM. Moreover, the GI50 was 0.0492 µM in assay [7], 0.0544 µM in [8], 0.0651 µM in assay [9] and 0.0753 µM in assay [10]. Moreover, the TGI in assay [1] was 0.358 µM; in assay [2], > 25 µM; in assay [3] it was 0.121 µM; in assay [4], 0.222 µM; in [5], > 8.78 µM; in assay [6], 0.311 µM. The TGI in assay [7] amounted to 0.128 µM; in [8], 0.199 µM; in [9] it was 0.632 µM; in [10], 3.07 µM.

On to `CCN(CC)c1ccc(/C=C/C2=[N+](C)c3ccccc3C2(C)C)c(C)c1`, for which the GI50 was 0.0463 µM in assay [1]; 0.0524 µM in assay [2]; 0.0792 µM in assay [3]; 0.0939 µM in assay [4]; 0.926 µM in assay [5]; 0.1 µM in [6]. Further, the GI50 was 0.11 µM in assay [7], 0.151 µM in [8], 0.0335 µM in [9] and 0.0964 µM in [10]. Also, the TGI in assay [1] amounted to 1.32 µM; in assay [2] it was 11.2 µM; in [3], 0.582 µM; in assay [4], 7 µM; in assay [5], 12 µM; in [6] it was 2.11 µM. For the same compound, the TGI in assay [7] was 4.02 µM; in assay [8], 2.73 µM; in [9] it was 0.0854 µM; in assay [10] it was 14.1 µM.

For `Cc1cc(C)n(C2=NS(=O)(=O)c3ccccc3N2C)n1`, the TGI in assay [1], in assay [2], in assay [3], in assay [4], in [5] and in assay [6] was > 100 µM throughout. Also, the TGI in assay [7], in [8], in assay [9] and in assay [10] was > 100 µM each time.

On to `c1ccc2[nH]c(CNc3ccc(C4C[Se]N=N4)cc3)nc2c1` (stereo not given), for which the TGI in [1], in [2], in assay [3], in [4], in assay [5] and in assay [6] was > 100 µM in each case. For the same compound, the TGI was > 100 µM in [7], > 100 µM in [8], 46.4 µM in assay [9] and > 100 µM in assay [10].

As to `Cc1cccc(C)c1N1C(=O)C(=O)C(c2nc3ccccc3s2)C(=Nc2cccc3c(=O)[nH][nH]c(=O)c23)C1=O` (stereo not given), the TGI in [1], in [2], in assay [3], in assay [4], in [5] and in assay [6] was > 100 µM each time. Further, the TGI in [7], in assay [8], in assay [9] and in assay [10] was > 100 µM in each case.

In the case of `O=C(NCCN1CCNCC1)c1ccc(Nc2nc3ccccc3c3occc23)cc1`, the GI50 in assay [1] was 4.5 µM; in assay [2] it was 14.3 µM; in assay [3] it was 18.3 µM; in [4] it was 2.65 µM; in [5] it was 15.6 µM; in assay [6], 21.3 µM. Also, the GI50 in assay [7] was 16.2 µM; in assay [8], 2.57 µM; in assay [9], 3.39 µM; in assay [10] it was 17.5 µM. Besides, the TGI is > 100 µM in assay [1]; 33.3 µM in assay [2]; 36.4 µM in assay [3]; 6.36 µM in [4]; 32.3 µM in assay [5]; > 100 µM in assay [6]. Further, the TGI turned out to be 36.3 µM in assay [7], 8.45 µM in [8], 13.7 µM in assay [9] and 36.8 µM in assay [10].

With `CC1=NN(C(=O)c2ccncc2)C(=O)C1N=Nc1ccc(F)cc1` (stereo not given), the TGI in [1], in assay [2], in assay [3], in assay [4], in [5] and in assay [6] was > 100 µM in each case. Besides, the TGI in [7], in assay [8], in assay [9] and in assay [10] was > 100 µM each time.

As for `OCc1ccc(N2CCOCC2)cc1Cl`, the GI50 is > 81.8 µM in assay [1]; 55.6 µM in assay [2]; > 100 µM in [3]; > 100 µM in assay [4]; > 100 µM in assay [5]; > 100 µM in assay [6]. Moreover, the GI50 in [7] was 0.224 µM; in assay [8], > 100 µM; in assay [9] it was > 91.2 µM; in assay [10], > 100 µM. Also, the TGI in assay [1], in assay [2], in [3], in [4], in assay [5] and in assay [6] was > 100 µM each time. Further, the TGI in assay [7] was 0.926 µM; in [8], > 100 µM; in assay [9], > 100 µM; in assay [10] it was > 100 µM.
